Experimental data from patent EP0745595A1, “3-(3-Aryloxyphenyl)-1-(substituted methyl)-s-triazine-2,4,6-oxo or thiotrione herbicidal agents” (American Cyanamid Company, priority 1995, dated 1996).

How the values were obtained:
Type in all cases: in vivo
GALIUM APARINE = assay: Postemergence herbicidal evaluation, GALAP (Galium); design: key to GALAP rating / Herbicidal effect rating, GALAP / GALAP: 0-9 visual rating scale vs untreated control;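 as to GALAP: higher means more injury with 8 approaching complete kill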
Procedure, shortened: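 Galium (GALAP) seedlings were raised in jiffy flats for about two weeks, then sprayed with test compounds dispersed in 50/50 acetone/water containing 0.5% TWEEN®20, delivered through a nozzle at 40 psi. Plants were kept on greenhouse benches and visually rated 0-9 against a control four to five weeks later; repeat tests were averaged.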

[1] = system: GLYCINE MAX(L) MERR. CV. WILLIAMS; assay: Postemergence herbicidal evaluation, GLXMAW (Soybean, Williams); design: key to GLXMAW rating / Herbicidal effect rating, GLXMAW / GLXMAW: 0-9 visual rating scale vs untreated control
Procedure, shortened: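 Soybean seedlings (Williams) were raised in jiffy flats for roughly two weeks, then sprayed postemergence through a nozzle at 40 psi with test compound dispersed in 50/50 acetone/water containing 0.5% TWEEN®20. Treated plants were kept on greenhouse benches under normal care and visually rated on a 0-9 scale four to five weeks later.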

[2] = system: ORYZA SATIVA, L. TEBONNET; assay: Postemergence herbicidal evaluation, ORYSAT (Rice, Tebonnet); design: key: 0-9 visual rating scale vs untreated control
Description: In the tests, seedling plants are grown in jiffy flats for about two weeks. The test compounds are dispersed in 50/50 acetone/water mixtures containing 0.5% TWEEN®20, a polyoxyethylene sorbitan monolaurate surfactant of Atlas Chemical Industries, in sufficient quantities to provide the equivalent of about 0.125 kg to 0.500 kg per hectare of active compound when applied to the plants through a spray nozzle operating at 40 psi for a predetermined time. After spraying, the plants are placed on greenhouse benches and are cared for in the usual manner, commensurate with conventional greenhouse practices. From four to five weeks after treatment, the seedling plants are examined and rated according to the rating system set forth below. Where more than one test is involved for a given compound, the data are averaged.
Plant species employed in these evaluations are reported by header abbreviation, common name and scientific name.
Results of herbicide evaluation are expressed on a rating scale (0-9). The scale is based upon a visual observation of plant stand, vigor, malformation, size, chlorosis and overall plant appearance as compared with a control.

[3] = system: GLYCINE MAX(L) MERR. CV. WILLIAMS; assay: Preemergence herbicidal evaluation, GLXMAW (Soybean, Williams); details: for GLXMAW herbicidal rating: rated four to five weeks after treatment
Procedure, shortened: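 Seeds sown in potting soil cups, then sprayed preemergence with aqueous acetone compound solution at about 0.125 to 0.50 kg per hectare. Greenhouse-grown, rated 4–5 weeks after treatment on a 0–9 visual scale against control.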

ZEA MAYS L. = assay: Preemergence herbicidal evaluation, ZEAMX (Corn, Field)
Procedure, shortened: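 Corn (Zea mays) seeds were mixed with potting soil and planted on about one inch of soil in pint cups, then treated preemergence. Cups were kept on greenhouse benches, watered and maintained conventionally, and after four to five weeks were visually rated on a 0-9 scale versus an untreated control.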

[4] = system: CYPERUS SEROTINUS, ROTTB.; assay: Preemergence weed control under flooded paddy conditions, CYPSE (Flatsedge); details: pre-weed
Procedure, shortened: (§1)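 Flooded paddy preemergence test: seeds/propagating organs in top 0.5 cm silt loam, water held 1.5-3 cm above soil. Dosing by pipette into flood water, aqueous/acetone 50/50 v/v, ~0.5, 0.25, 0.125, 0.063 kg/ha a.i. Greenhouse; read at 3-4 wk, 0-9 visual scale.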

[…], PRESL. = Preemergence weed control under flooded paddy conditions, MOOVA (Monochoria); details: for MOOVA: pre-weed; for Herbicidal effect rating, MOOVA: preemergence, 3-4 weeks after treatment
Procedure, shortened: as §1

SAGITTARIA PYGMAEA, L. = assay: Preemergence weed control under flooded paddy conditions, SAGPY (Arrowhead (Pygmaea)); details: pre-weed
Procedure, shortened: as §1

CYPERUS IRIA = assay: Preemergence weed control under flooded paddy conditions, CYPIR (Rice Flatsedge); details: for Herbicidal effect rating, CYPIR: preemergence, 3-4 weeks after treatment; for CYPIR: pre-weed
Procedure, shortened: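 Seeds or propagating organs of rice flatsedge were planted in the top 0.5 cm of silt loam soil in 32 oz. plastic containers, 10.5 cm across and without drainage holes. Water was kept 1.5 to 3 cm above the soil throughout. Treated containers were kept on greenhouse benches, and herbicidal effect was visually rated on a 0-9 scale against a control.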

[5] = system: ECHINOCHLOA ORYZOIDES (ARD.)FRITSCH; assay: Preemergence weed control under flooded paddy conditions, ECHORC (Watergrass (Calif.)); details: pre-weed
Procedure, shortened: as §1

**Q.** Which results are given for Cn1c(=O)[nH]c(=O)n(-c2cc(Oc3c(F)cc(C(F)(F)F)cc3Cl)ccc2F)c1=O [C, reference compound]?
**A.** Herbicidal effect rating, GALAP (GALIUM APARINE; 0.031 kg/ha): 2.0; Herbicidal effect rating, GALAP (GALIUM APARINE; 0.063 kg/ha): 6.0; Herbicidal effect rating, GALAP (GALIUM APARINE; 0.125 kg/ha): 7.0; Herbicidal effect rating, GALAP (GALIUM APARINE; 0.250 kg/ha): 7.0; Herbicidal effect rating, GLXMAW ([1]; 0.031 kg/ha): 3.5; Herbicidal effect rating, GLXMAW ([1]; 0.063 kg/ha): 4.5; Herbicidal effect rating, GLXMAW ([1]; 0.125 kg/ha): 4.5; Herbicidal effect rating, GLXMAW ([1]; 0.250 kg/ha): 5.0; Herbicidal effect rating, ORYSAT ([2]; 0.031 kg/ha): 3.0; Herbicidal effect rating, ORYSAT ([2]; 0.063 kg/ha): 3.5; Herbicidal effect rating, ORYSAT ([2]; 0.125 kg/ha): 3.5; Herbicidal effect rating, ORYSAT ([2]; 0.250 kg/ha): 3.5; GLXMAW ([3]; Rate 0.031 kg/ha): 0.0; GLXMAW ([3]; Rate 0.063 kg/ha): 0.0; GLXMAW ([3]; Rate 0.125 kg/ha): 0.0; GLXMAW ([3]; Rate 0.250 kg/ha): 0.0; ZEAMX (ZEA MAYS L.; Rate 0.031 kg/ha): 0.0; ZEAMX (ZEA MAYS L.; Rate 0.063 kg/ha): 0.0; ZEAMX (ZEA MAYS L.; Rate 0.125 kg/ha): 0.0; ZEAMX (ZEA MAYS L.; Rate 0.250 kg/ha): 0.0; CYPSE ([4]; Rate 0.031 kg/ha): 0.0; CYPSE ([4]; Rate 0.063 kg/ha): 0.0; CYPSE ([4]; Rate 0.125 kg/ha): 0.0; CYPSE ([4]; Rate 0.250 kg/ha): 0.0; MOOVA ([…], PRESL.; Rate 0.031 kg/ha): 9.0; MOOVA ([…], PRESL.; Rate 0.063 kg/ha): 9.0; MOOVA ([…], PRESL.; Rate 0.125 kg/ha): 9.0; MOOVA ([…], PRESL.; Rate 0.250 kg/ha): 9.0; SAGPY (SAGITTARIA PYGMAEA, L.; Rate 0.031 kg/ha): 0.0; SAGPY (SAGITTARIA PYGMAEA, L.; Rate 0.063 kg/ha): 0.0; SAGPY (SAGITTARIA PYGMAEA, L.; Rate 0.125 kg/ha): 0.0; SAGPY (SAGITTARIA PYGMAEA, L.; Rate 0.250 kg/ha): 0.0

**Q.** For COC(=O)Cn1c(=O)n(C)c(=O)n(-c2cc(Oc3ccc(C(F)(F)F)cc3Cl)ccc2Cl)c1=O [Compound 39, Methyl 3-{[2-chloro-5-(2-chloro-α,α,α-trifluoro-p-tolyl)oxy]phenyl}tetrahydro-5-methyl-2,4,6-trioxo-s-triazine-1(2H)-acetate], which GALAP (GALIUM APARINE; Rate 0.016 kg/ha) is on record?
**A.** 7.5

**Q.** And the GALAP (GALIUM APARINE; Rate 0.032 kg/ha)?
**A.** 8.5

**Q.** And the GALAP (GALIUM APARINE; Rate 0.063 kg/ha)?
**A.** 7.0

**Q.** And the GALAP (GALIUM APARINE; Rate 0.125 kg/ha)?
**A.** 8.0

**Q.** And the GALAP (GALIUM APARINE; Rate 0.250 kg/ha)?
**A.** 9.0

**Q.** What about the GALAP (GALIUM APARINE; Rate 0.500 kg/ha) of the same compound?
**A.** 9.0

**Q.** What about the GLXMAW ([1]; Rate 0.016 kg/ha) of the same compound?
**A.** 3.8

**Q.** What about the GLXMAW ([1]; Rate 0.032 kg/ha) of the same compound?
**A.** 4.5

**Q.** What about the GLXMAW ([1]; Rate 0.063 kg/ha) of the same compound?
**A.** 5.3

**Q.** And the GLXMAW ([1]; Rate 0.125 kg/ha)?
**A.** 5.5

**Q.** What about the GLXMAW ([1]; Rate 0.250 kg/ha) of the same compound?
**A.** 6.3

**Q.** What about the GLXMAW ([1]; Rate 0.500 kg/ha) of the same compound?
**A.** 7.0

**Q.** And the ORYSAT ([2]; Rate 0.016 kg/ha)?
**A.** 2.3

**Q.** What about the ORYSAT ([2]; Rate 0.032 kg/ha) of the same compound?
**A.** 3.3

**Q.** What about the ORYSAT ([2]; Rate 0.063 kg/ha) of the same compound?
**A.** 4.8

**Q.** What about the ORYSAT ([2]; Rate 0.125 kg/ha) of the same compound?
**A.** 4.3

**Q.** What about the ORYSAT ([2]; Rate 0.250 kg/ha) of the same compound?
**A.** 4.8

**Q.** And the ORYSAT ([2]; Rate 0.500 kg/ha)?
**A.** 4.5

**Q.** What about the GLXMAW herbicidal rating ([3]; Rate 0.125 kg/ha) of the same compound?
**A.** 2.0

**Q.** And the GLXMAW herbicidal rating ([3]; Rate 0.250 kg/ha)?
**A.** 2.0

**Q.** What about the GLXMAW herbicidal rating ([3]; Rate 0.500 kg/ha) of the same compound?
**A.** 2.0

**Q.** What about the “Herbicidal effect rating, CYPIR” value (CYPERUS IRIA; 0.063 kg/ha) of the same compound?
**A.** 9.0

**Q.** What about the “Herbicidal effect rating, CYPIR” value (CYPERUS IRIA; 0.125 kg/ha) of the same compound?
**A.** 9.0

**Q.** What about the “Herbicidal effect rating, CYPIR” value (CYPERUS IRIA; 0.250 kg/ha) of the same compound?
**A.** 9.0

**Q.** And the “Herbicidal effect rating, CYPIR” value (CYPERUS IRIA; 0.500 kg/ha)?
**A.** 9.0

**Q.** And the CYPIR (CYPERUS IRIA; Rate 0.031 kg/ha)?
**A.** 9.0

**Q.** What about the CYPIR (CYPERUS IRIA; Rate 0.063 kg/ha) of the same compound?
**A.** 9.0

**Q.** And the CYPIR (CYPERUS IRIA; Rate 0.125 kg/ha)?
**A.** 9.0

**Q.** And the CYPIR (CYPERUS IRIA; Rate 0.250 kg/ha)?
**A.** 9.0

**Q.** What about the “Herbicidal effect rating, MOOVA” value ([…], PRESL.; 0.063 kg/ha) of the same compound?
**A.** 9.0

**Q.** What about the “Herbicidal effect rating, MOOVA” value ([…], PRESL.; 0.125 kg/ha) of the same compound?
**A.** 9.0

**Q.** What about the “Herbicidal effect rating, MOOVA” value ([…], PRESL.; 0.250 kg/ha) of the same compound?
**A.** 9.0

**Q.** What about the “Herbicidal effect rating, MOOVA” value ([…], PRESL.; 0.500 kg/ha) of the same compound?
**A.** 9.0

**Q.** And the MOOVA ([…], PRESL.; Rate 0.031 kg/ha)?
**A.** 9.0

**Q.** And the MOOVA ([…], PRESL.; Rate 0.063 kg/ha)?
**A.** 9.0

**Q.** And the MOOVA ([…], PRESL.; Rate 0.125 kg/ha)?
**A.** 9.0

**Q.** And the MOOVA ([…], PRESL.; Rate 0.250 kg/ha)?
**A.** 9.0

**Q.** What does the source list for Cn1c(=O)[nH]c(=O)n(-c2cc(Oc3c(F)cc(C(F)(F)F)cc3Cl)ccc2[N+](=O)[O-])c1=O [D, reference compound]?
**A.** GALAP (GALIUM APARINE; Rate 0.008 kg/ha): 4.0; GALAP (GALIUM APARINE; Rate 0.016 kg/ha): 8.0; GALAP (GALIUM APARINE; Rate 0.031 kg/ha): 9.0; GALAP (GALIUM APARINE; Rate 0.063 kg/ha): 8.5; GALAP (GALIUM APARINE; Rate 0.125 kg/ha): 9.0; GLXMAW ([1]; Rate 0.008 kg/ha): 2.5; GLXMAW ([1]; Rate 0.016 kg/ha): 4.2; GLXMAW ([1]; Rate 0.031 kg/ha): 4.5; GLXMAW ([1]; Rate 0.063 kg/ha): 4.7; GLXMAW ([1]; Rate 0.125 kg/ha): 5.5; ORYSAT ([2]; Rate 0.016 kg/ha): 3.8; ORYSAT ([2]; Rate 0.031 kg/ha): 4.3; ORYSAT ([2]; Rate 0.063 kg/ha): 4.8; ORYSAT ([2]; Rate 0.125 kg/ha): 5.3; ZEAMX (ZEA MAYS L.; Rate 0.031 kg/ha): 0.0; ZEAMX (ZEA MAYS L.; Rate 0.063 kg/ha): 0.0; ZEAMX (ZEA MAYS L.; Rate 0.125 kg/ha): 0.0; ZEAMX (ZEA MAYS L.; Rate 0.250 kg/ha): 0.0; ECHORC ([5]; Rate 0.031 kg/ha): 9.0; ECHORC ([5]; Rate 0.063 kg/ha): 9.0; ECHORC ([5]; Rate 0.125 kg/ha): 9.0; ECHORC ([5]; Rate 0.250 kg/ha): 9.0
